pIC50: −log10 of the molar value.
Molecular target: Complement factor D (Homo sapiens, UniProt P00746)
Assay: Human Factor D Assay
Procedure: Human Factor D (purified from human serum, Complement Technology, Inc.) at 80 nM final concentration is incubated with test compound at various concentrations for 5 min at room temperature in 50 mM Tris, 1M NaCl, pH 7.5. A synthetic substrate Z-L-Lys-SBzl and DTNB (Ellman's reagent) are added to final concentrations of 100 μM each. Absorbance at 405 nm (A405) is recorded at 30 second intervals for 30 min using a microplate spectrophotometer. IC50 values are calculated by nonlinear regression of complement Factor D reaction rates as a function of test compound concentration.

Chain of Complement factor D (P00746 whole entry): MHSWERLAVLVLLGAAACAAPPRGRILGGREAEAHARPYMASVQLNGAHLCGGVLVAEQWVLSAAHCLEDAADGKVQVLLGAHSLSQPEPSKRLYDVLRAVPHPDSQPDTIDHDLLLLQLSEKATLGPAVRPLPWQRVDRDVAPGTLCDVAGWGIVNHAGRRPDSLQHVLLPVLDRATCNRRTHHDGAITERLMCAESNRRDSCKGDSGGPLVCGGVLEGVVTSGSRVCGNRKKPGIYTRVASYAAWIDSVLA

Structure (SMILES) | pIC50
CC(=O)c1cn(CC(=O)N2C[C@H]3C[C@H]3[C@H]2C(=O)Nc2nc(C(F)(F)F)ccc2C)c2c(C)cc(-c3cnc4cc(C)nn4c3)cc12 [US20250197403, Compound 1] | > 6.00
CC(=O)c1cn(CC(=O)N2[C@H](C(=O)Nc3nc(Br)ccc3C3CC3)C[C@@]3(C)C[C@@H]23)c2c(C)cc(-c3cnc(C)nc3)cc12 [US20250197403, Compound 9] | > 6.00
CC(=O)c1cn(CC(=O)N2[C@H](C(=O)Nc3cncc(C(F)(F)F)n3)C[C@@]3(C)C[C@@H]23)c2c(C)cc(-c3cnc4cc(C)nn4c3)cc12 [US20250197403, Compound 48] | > 6.00
COCc1ccc(Br)nc1NC(=O)[C@@H]1C[C@@]2(C)C[C@H]2N1C(=O)Cn1cc(C(C)=O)c2cc(-c3ccc4nc(C)nn4c3)cc(C)c21 [US20250197403, Compound 62] | > 6.00
CC(=O)c1cn(CC(=O)N2[C@H](C(=O)Nc3nc(C(F)(F)F)ccc3C)C[C@@]3(C)C[C@@H]23)c2c(C)cc(-c3cnc4sc(C)nc4c3)cc12 [US20250197403, Compound 70] | > 6.00
CC(=O)c1cn(CC(=O)N2C[C@@](F)(CF)C[C@H]2C(=O)Nc2nc(C(F)(F)F)ccc2Cl)c2c(C)nc(-c3cnc4cc(C)nn4c3)cc12 [US20250197403, Compound 92] | > 6.00

Source: BindingDB's records for patent US20250197403 (Achillion Pharmaceuticals, 2025)
